Assay results: US20060263802A1 (priority 2003, published 2006)

How the values were obtained:
Assay type in all cases: binding
[1] = tested on: human monoclonal antibody CR57
[2] = tested on: human monoclonal antibody CRJB
[3] = tested on: human monoclonal antibody CR57; remark: listed apart in the source
[4] = tested on: human monoclonal antibody CRJA
[5] = tested on: human monoclonal antibody CRJB; remark: listed apart in the source
[6] = tested on: human monoclonal antibody CR57; remark: listed apart in the source
[7] = tested on: human monoclonal antibody CRJA; remark: listed apart in the source

Sequence | binding of CR57 to 12-, 10- and 8-mer peptides [1] | Binding of CRJB to linear peptide (PEPSCAN-ELISA signal) [2] | Binding of CR57 to linear peptide (PEPSCAN-ELISA signal) [3] | Binding of CRJA to linear peptide (PEPSCAN-ELISA signal) [4] | Binding of CRJB (10 μg/ml) to looped/cyclic peptide (PEPSCAN-ELISA signal) [5] | Binding of CR57 (10 μg/ml) to looped/cyclic peptide (PEPSCAN-ELISA signal) [6] | Binding of CRJA (10 μg/ml) to looped/cyclic peptide (PEPSCAN-ELISA signal) [7] | Binding of CRJB (10 μg/ml) to looped/cyclic peptide (PEPSCAN-ELISA) [5] | Binding of CR57 (10 μg/ml) to looped/cyclic peptide (PEPSCAN-ELISA) [6] | Binding of CRJA (10 μg/ml) to looped/cyclic peptide (PEPSCAN-ELISA) [7]
ACKLKLCGVL | bound |  |  |  |  |  |  |  |  | 
ACKLKLCGVLGL | bound |  |  |  |  |  |  |  |  | 
CKLKLCGVLG | bound |  |  |  |  |  |  |  |  | 
CKLKLCGVLGLR | bound |  |  |  |  |  |  |  |  | 
GACKLKLCGVLG | bound |  |  |  |  |  |  |  |  | 
KGACKLKLCGVL | bound |  |  |  |  |  |  |  |  | 
KLCGVLGL | bound |  |  |  |  |  |  |  |  | 
KLCGVLGLRLMD | bound |  |  |  |  |  |  |  |  | 
VSSTYCSTNHDYTIW |  | 107 | 78 | 80 | 61 | 89 | 88 |  |  | 
VTEAENYTNFVGYVT |  | 90 | 79 | 79 | 80 | 84 | 97 |  |  | 
VTTTFKRKHFRPTPD |  | 105 | 79 | 77 | 83 | 101 | 89 |  |  | 
VVEDEGCTNLSGFSY |  | 107 | 73 | 63 | 66 | 79 | 68 |  |  | 
VVEELVRKREECLDA |  | 108 | 62 | 90 |  |  |  | 5 | 30 | 59
VVTEAENYTNFVGYV |  | 106 | 87 | 90 | 62 | 80 | 58 |  |  | 
WCPPDQLVNLHDFRS |  | 119 | 101 | 114 |  |  |  | 106 | 105 | 111
WKMAGDPRYEESLHN |  | 101 | 69 | 86 | 77 | 96 | 90 |  |  | 
WLRTVKTTKESLVII |  | 104 | 41 | 85 | 78 | 55 | 78 |  |  | 
